The values below come from patent US20070196294A1, “Photostable sunscreen compositions comprising dibenzoylmethane compound UV-A filters and s-triazine compounds” (L'OREAL, priority 2006, published 2007).

The data set is described as follows: Photostability of formulations on PMMA sheets exposed in a Heraeus Suntest. In kind it is physicochemical. The following applies: formulations 9 and 10 versus control formulation 8. How it is done:
Method for Measuring the Photostability:
For each formulation, constituents given in % by weight, 3 test samples and 3 control samples were prepared. 2 mg/cm^2 of formulation are deposited on poly(methyl methacrylate) sheets using a spatula.
The test sheets are exposed for 38 min to a Heraeus Suntest equipped with a xenon lamp having a UV-A flux of 9.51×10^−3 W/cm^2 and a UV-B flux of 5.43×10^−4 W/cm^2. The control sheets are stored for the same time and at the same temperature (38-40° C.) in darkness.
At the end of this time, the screening agents are extracted by immersing each sheet in 50 g of methanol and by subjecting them to ultrasound for 15 min in order to provide for good extraction. The solutions obtained are analyzed by HPLC and UV spectrophotometry.
For each formulation tested, the residual 4-(tert-butyl)-4′-methoxydibenzoylmethane level after exposure is given in the ratio of its optical density (OD) in the exposed sample to its unexposed optical density (OD). The positions adopted are the absorption maxima corresponding to butyl-methoxy-dibenzoylmethane: λmax=358 nm.

On to `CCCCOC(=O)c1ccc(Nc2nc(Nc3ccc(C=C(C(=O)OCC(C)(C)C)C(=O)OCC(C)(C)C)cc3)nc(Nc3ccc(C=C(C(=O)OCC(C)(C)C)C(=O)OCC(C)(C)C)cc3)n2)cc1` [Example 1, 2,4-bis(dineopentyl 4′-aminobenzalmalonate)-6-(butyl 4″-aminobenzoate)-s-triazine], for which the “Photostability of the dibenzoylmethane in the presence of the compound (result in words)” value was “improvement in the photostability of the dibenzoylmethane”.
